The record followed here is US9637523B2 (priority 2012, dated 2017).

Experiment [1] deals with avian IAV FPV. It is filed as cell-based.
Experiment [2] has as its system human IAV PR8. It is filed as cell-based.
The subject of experiment [3] is polymerase subunits PB1, PB2, PA and NP of the avian IAV FPV-Rostock. It is filed as cell-based, A/FPV/Rostock/34 (H7N1).
Experiment [4] relates to PB1, NS1, NP and M1 of IAV. It is filed as cell-based.

“Also recorded” adds a separate entry of the source.

Regarding `Cc1ccc(NC(=O)c2ccc(CN3CCN(C)CC3)cc2)cc1Nc1nccc(-c2cccnc2)n1` [Imatinib], in experiment [1], the “replication (progeny virus yields) of avian IAV FPV” value is reported as “interferes with replication properties of the avian IAV FPV in a concentration dependent manner; also recorded: only efficient upon low dose infection”. Besides, the “replication (progeny virus yields) of human IAV PR8” value in experiment [2] is on record as “absolutely independent of the tyrosine kinase activity of c-Abl”. Further, the “viral polymerase activity (luciferase)” value in experiment [3] is recorded as “neither detect an impact”. In experiment [4], the viral protein expression entry is “neither detect an impact”.
